In patent publication US8987304B2, “Antituberculous composition comprising oxazole compounds” (priority 2005, dated 2015):

What was measured:
CYP1A1/2 = experiment: ethoxyresorufin deethylation activity in human hepatic microsome
Description: (§1) 4-2. Effect of the Oxazole Compound (I) on the Enzymatic Activity of Each Molecular Species of Cytochrome P450 (CYP)
(§2) Basic reaction composition (0.5 ml) was consisting of microsome protein 0.2-1 mg/ml, 100 mM phosphate buffer (pH 7.4), 0.1 mM EDTA, NADPH generation system (2.5 mM β-NADP, 25 mM glucose-6-phosphate, 2 units glucose-6-phosphate dehydrogenase and 10 mM magnesium chloride), with or without each substrate and inhibitor, and the reaction was performed at 37° C. for 10-60 minutes. Each substrate and its concentration used were 7-ethoxyresorufln (0.5 μM), coumarin (2 μM), 7-benzyloxyresorufin (1.5 μM), tolbutamide (400 μM), S-mephenyloin (100 μM), bufuralol (20 μM), chlorzoxazone (100 μM), testosterone (100 μM) and nifedipine (50 μM).
(§3) Generated products after the metabolic response were measured by using high performance liquid chromatography after extraction.

[1] = system: hepatic microsomal enzyme; experiment: In vitro metabolism, mouse hepatic microsome; type: in vitro ADME; details: 100 μM, microsome protein 1 mg/ml, 37° C., 2 hours
Description: (§4) 4-1. In Vitro Metabolism of Oxazole Compound (I)
(§5) Studies on in vitro metabolism of oxazole compound (I) (compound (A-R)) were performed using hepatic microsomal enzyme of human and various animals (mouse, rat, dog, rabbit and monkey). Human microsome was obtained from Attached Primate Research Institute, HAB Discussion Group (Chiba, Japan). […] The reaction was terminated by adding organic solvent (acetonitrile or ethyl acetate) and generated metabolites were extracted. The extracted metabolites were detected by using high performance liquid chromatography and liquid chromatograph electrospray ionization tandem mass spectrometry to confirm amount of generation.

CYP2C19 = CYP2C19 (Homo sapiens, UniProt P33261); experiment: S-mephenytoin hydroxylation activity in human hepatic microsome; details: liver microsomes, pH 7.4, probe S-mephenytoin (100 μM)
Description: as §1, §2, §3

[2] = system: each CYP enzyme (CYP1A/2, CYP2A6, CYP2B6, CYP2C8/9, CYP2C19, CYP2D6, CYP2E1 and CYP3A4); experiment: Summary: effect on each CYP enzyme activity in human hepatic microsome; details: up to 100 μM
Description: as §1, §2, §3

[3] = system: hepatic microsomal enzyme; experiment: In vitro metabolism, monkey hepatic microsome; type: in vitro ADME; details: 100 μM, microsome protein 1 mg/ml, 37° C., 2 hours
Description: as §4, §5

[4] = system: intracellular parasitic tubercle bacillus (M. tuberculosis H37Rv) in THP-1 cells; experiment: Effect on intracellular parasitic tubercle bacillus in THP-1 cells; type: cell-based
CYP2D6 = CYP2D6 (Homo sapiens, UniProt P10635); experiment: bufuralol hydroxylation activity in human hepatic microsome; details: liver microsomes, pH 7.4, probe bufuralol (20 μM)
Description: as §1, §2, §3

[5] = system: Experimental mouse tuberculosis model; experiment: In vivo experiments for intermittent administration, experimental mouse tuberculosis model; details: three times a week, twice a week or once a week; alone or in combination with conventional antituberculous drugs
Description: In Vivo Experiments for Intermittent Administration

[6] = system: hepatic microsomal enzyme; experiment: In vitro metabolism, human hepatic microsome; type: in vitro ADME; details: 100 μM, microsome protein 1 mg/ml, 37° C., 2 hours
Description: as §4, §5

CYP2A6 = molecular target: T1, CYP2A6 (Homo sapiens, UniProt P11509); experiment: coumarin hydroxylation activity in human hepatic microsome
T1 sequence (P11509 1-494): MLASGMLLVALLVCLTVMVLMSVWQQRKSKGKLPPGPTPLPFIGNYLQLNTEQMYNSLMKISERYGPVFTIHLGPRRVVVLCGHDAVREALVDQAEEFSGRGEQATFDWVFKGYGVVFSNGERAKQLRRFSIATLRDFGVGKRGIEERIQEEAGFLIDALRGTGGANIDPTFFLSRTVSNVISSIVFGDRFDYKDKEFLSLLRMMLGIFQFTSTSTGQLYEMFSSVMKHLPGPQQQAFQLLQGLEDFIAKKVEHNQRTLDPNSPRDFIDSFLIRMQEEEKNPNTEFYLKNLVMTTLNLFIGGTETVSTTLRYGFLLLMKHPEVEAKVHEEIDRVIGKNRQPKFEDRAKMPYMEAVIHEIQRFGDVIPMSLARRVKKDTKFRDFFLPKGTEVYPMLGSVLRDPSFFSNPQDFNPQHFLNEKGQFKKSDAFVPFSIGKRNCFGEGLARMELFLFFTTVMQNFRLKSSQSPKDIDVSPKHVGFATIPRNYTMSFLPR
Description: as §1, §2, §3

CYP2C8/9 = experiment: tolbutamide hydroxylation activity in human hepatic microsome
Description: as §1, §2, §3

[7] = system: hepatic microsomal enzyme; experiment: In vitro metabolism, rat hepatic microsome; type: in vitro ADME; details: 100 μM, microsome protein 1 mg/ml, 37° C., 2 hours
Description: as §4, §5

CYP2B6 = molecular target: T2, CYP2B6 (Homo sapiens, UniProt P20813); experiment: 7-benzyloxyresorufin debenzylation activity in human hepatic microsome; details: microsomes, pH 7.4
T2 sequence (P20813 1-491): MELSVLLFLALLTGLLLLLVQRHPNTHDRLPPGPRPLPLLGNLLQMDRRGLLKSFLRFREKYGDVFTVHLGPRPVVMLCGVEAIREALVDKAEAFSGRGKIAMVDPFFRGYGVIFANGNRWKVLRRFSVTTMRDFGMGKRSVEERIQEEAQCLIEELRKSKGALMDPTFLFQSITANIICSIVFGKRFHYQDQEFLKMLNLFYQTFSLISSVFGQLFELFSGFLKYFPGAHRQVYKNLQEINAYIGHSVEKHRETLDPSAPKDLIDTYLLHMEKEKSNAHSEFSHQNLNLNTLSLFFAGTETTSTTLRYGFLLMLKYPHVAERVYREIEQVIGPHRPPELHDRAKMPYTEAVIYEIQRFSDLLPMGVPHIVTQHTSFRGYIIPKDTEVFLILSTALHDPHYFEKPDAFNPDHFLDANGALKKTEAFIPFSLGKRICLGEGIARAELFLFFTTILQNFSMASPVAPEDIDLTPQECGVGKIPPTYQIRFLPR
Description: as §1, §2, §3

[8] = system: hepatic microsomal enzyme; experiment: In vitro metabolism, rabbit hepatic microsome; type: in vitro ADME; details: 100 μM, microsome protein 1 mg/ml, 37° C., 2 hours
Description: as §4, §5

[9] = system: hepatic microsomal enzyme; experiment: In vitro metabolism, dog hepatic microsome; type: in vitro ADME; details: 100 μM, microsome protein 1 mg/ml, 37° C., 2 hours
Description: as §4, §5

[10] = system: clinical isolates of tubercle bacillus, TBT-9 and TBT-14; experiment: In vitro combined effect: MIC on 7H11 agar plates and FIC index; type: cell-based; details: 37° C., 2 weeks; for MIC: Bacillus, 336 h, each agent alone
Description: In Vitro Experiment on the Combined Effect of an Oxazole Compound (I) and Another Agent
A suspension of tubercle bacillus was prepared at about 10^6 CFU/ml (for clinical isolates of tubercle bacillus, TBT-9 and TBT-14). About 10 μl aliquots thereof were inoculated on respective plates by using a multipoint inoculator.

CYP2E1 = CYP2E1 (Homo sapiens, UniProt P05181); experiment: chlorozoxazone hydroxylation activity in human hepatic microsome; details: 100 μM; CYP2E1, chlorozoxazone (100 μM)
Description: as §1, §2, §3

[11] = human, liver microsomes, pH 7.4, probe coumarin (2 μM), coumarin hydroxylation
[12] = combination Compound (A-R) & EB
[13] = combination Compound (A-R) & RFP
[14] = liver microsomes, pH 7.4, probe tolbutamide (400 μM), hydroxylation

Chain of CYP2D6 (P10635 whole entry): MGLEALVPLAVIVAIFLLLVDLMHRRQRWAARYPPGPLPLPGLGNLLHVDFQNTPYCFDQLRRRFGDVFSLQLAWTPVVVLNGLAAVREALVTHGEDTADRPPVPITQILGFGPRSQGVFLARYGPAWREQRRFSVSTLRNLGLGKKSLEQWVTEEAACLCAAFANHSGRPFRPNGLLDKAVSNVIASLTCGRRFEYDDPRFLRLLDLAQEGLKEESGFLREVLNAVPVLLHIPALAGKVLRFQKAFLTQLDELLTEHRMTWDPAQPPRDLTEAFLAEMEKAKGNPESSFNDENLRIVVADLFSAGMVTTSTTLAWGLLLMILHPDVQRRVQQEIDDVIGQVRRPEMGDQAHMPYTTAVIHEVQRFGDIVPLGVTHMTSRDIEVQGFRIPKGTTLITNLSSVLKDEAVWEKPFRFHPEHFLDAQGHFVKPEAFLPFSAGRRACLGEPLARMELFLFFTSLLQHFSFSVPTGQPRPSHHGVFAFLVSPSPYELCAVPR
Chain of CYP2C19 (P33261 whole entry): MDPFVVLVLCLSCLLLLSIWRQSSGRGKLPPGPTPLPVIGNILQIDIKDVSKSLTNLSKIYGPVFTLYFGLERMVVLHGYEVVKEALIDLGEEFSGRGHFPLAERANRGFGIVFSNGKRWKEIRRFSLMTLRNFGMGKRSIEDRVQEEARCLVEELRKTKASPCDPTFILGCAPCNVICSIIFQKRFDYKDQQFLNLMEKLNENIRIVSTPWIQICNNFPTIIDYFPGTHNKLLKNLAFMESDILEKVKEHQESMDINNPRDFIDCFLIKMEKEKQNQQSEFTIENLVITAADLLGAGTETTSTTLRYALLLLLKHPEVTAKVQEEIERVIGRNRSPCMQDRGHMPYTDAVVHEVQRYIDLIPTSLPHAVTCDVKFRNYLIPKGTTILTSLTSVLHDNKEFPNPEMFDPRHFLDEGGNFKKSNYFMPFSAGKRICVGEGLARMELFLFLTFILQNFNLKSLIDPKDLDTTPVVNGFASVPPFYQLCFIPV
Chain of CYP2E1 (P05181 whole entry): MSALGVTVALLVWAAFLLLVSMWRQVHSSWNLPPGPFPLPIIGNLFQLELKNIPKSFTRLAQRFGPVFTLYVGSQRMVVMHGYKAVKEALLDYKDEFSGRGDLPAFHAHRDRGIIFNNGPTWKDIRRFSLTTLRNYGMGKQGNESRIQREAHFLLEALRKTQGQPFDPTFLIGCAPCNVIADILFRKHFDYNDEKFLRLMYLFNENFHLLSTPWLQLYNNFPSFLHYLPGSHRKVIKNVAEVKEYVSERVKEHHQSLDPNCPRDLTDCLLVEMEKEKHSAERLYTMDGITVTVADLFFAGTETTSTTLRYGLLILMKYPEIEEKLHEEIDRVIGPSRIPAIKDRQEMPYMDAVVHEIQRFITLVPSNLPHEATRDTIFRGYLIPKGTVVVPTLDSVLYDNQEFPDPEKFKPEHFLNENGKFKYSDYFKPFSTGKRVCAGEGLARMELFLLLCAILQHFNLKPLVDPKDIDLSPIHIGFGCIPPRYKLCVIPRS

With `O=c1cc(-c2ccccc2)oc2c1ccc1ccccc12` [7,8-benzoflavone, reference compound] the “Relative activity (%) for control activity” value (“Relative activity (%)” below) (CYP1A1/2; 100 μM, CYP1A1/2, 7-ethoxyresorufin (0.5 μM)) was 3.8%.

`C[C@]1(COc2ccc(N3CCC(Oc4ccc(OC(F)(F)F)cc4)CC3)cc2)Cn2cc([N+](=O)[O-])nc2O1` [Compound (A-R), (R)-2-methyl-6-nitro-2-{4-[4-(4-trifluoromethoxyphenoxy)piperidin-1-yl]phenoxymethyl}-2,3-dihydroimidazo[2,1-b]oxazole] was tested, and the generated metabolites [1] was “almost no generated metabolites”, the activity at 3 μM (CYP2C19) was 109% and the activity at 10 μM (CYP2C19) was 113%. The activity at 1 μM (CYP1A1/2; human, microsomes, pH 7.4) was 99.8%, the activity at 10 μM (CYP1A1/2; human, microsomes, pH 7.4) was 98.4% and the activity at 30 μM (CYP1A1/2; human, microsomes, pH 7.4) was 102%. For the same compound, the activity at 100 μM (CYP1A1/2; human, microsomes, pH 7.4) was 98.6%, the “inhibitory action and stimulation action against each CYP enzyme activity” value [2] was “did not exhibit inhibitory action and stimulation action” and the generated metabolites [3] was “almost no generated metabolites”. For the same compound, the “effect in short term action” value ([4]; action for 2 hours) was “strong effect”, the “effect against intracellular parasitic tubercle bacillus at the lowest test dose” value ([4]; compound (A-R) 0.1 μg/ml compared with RFP 3 μg/ml) was “equivalent effect of the maximum concentration 3 μg/ml of RFP” and the “Log reduction of bacterial counts compared with time 0 hour (FIG. 2), comparison among antituberculous drugs” value ([4]; test substance for 2 or 4 hours, bacteria collected at 72 hours) was “stronger effect”. For the same compound, the activity at 1 μM (CYP2D6) was 102%, the activity at 3 μM (CYP2D6) was 102% and the activity at 30 μM (CYP2D6) was 103%. The “therapeutic effect of intermittent administration compared with once a day administration” value [5] was “equivalent effect”, the generated metabolites [6] was “almost no generated metabolites” and the activity at 1 μM (CYP2A6; [11]) was 103%. It also gave an activity at 3 μM (CYP2A6; [11]) of 102%, an activity at 10 μM (CYP2A6; [11]) of 103% and an activity at 1 μM (CYP2C8/9; microsomes, pH 7.4) of 107%. For the same compound, the activity at 3 μM (CYP2C8/9; microsomes, pH 7.4) was 111%, the activity at 10 μM (CYP2C8/9; microsomes, pH 7.4) was 107% and the activity at 30 μM (CYP2C8/9; microsomes, pH 7.4) was 108%. For the same compound, the activity at 100 μM (CYP2C8/9; microsomes, pH 7.4) was 108%, the generated metabolites [7] was “almost no generated metabolites” and the activity at 1 μM (CYP2B6) was 111%. For the same compound, the activity at 3 μM (CYP2B6) was 109%, the activity at 10 μM (CYP2B6) was 118% and the activity at 30 μM (CYP2B6) was 113%. For the same compound, the activity at 100 μM (CYP2B6) was 122%, the generated metabolites [8] was “almost no generated metabolites” and the generated metabolites [9] was “almost no generated metabolites”. For the same compound, the MIC ([10]; line Compound (A-R) & EB) was 0.012 µg/mL, the MIC ([10]; line Compound (A-R) & RFP) was 0.024 µg/mL and the MIC in combination [10, 12] was 0.003 µg/mL. The MIC in combination [10, 13] was 0.006 µg/mL.

With `CC[C@@H](CO)NCCN[C@@H](CC)CO` [EB, ethambutol, reference compound] the MIC ([10]; line Compound (A-R) & EB) was 1.56 µg/mL and the MIC in combination [10, 12] was 0.2 µg/mL.

`CO[C@H]1/C=C/O[C@@]2(C)Oc3c(C)c(O)c4c(O)c(c(/C=N/N5CCN(C)CC5)c(O)c4c3C2=O)NC(=O)/C(C)=C\C=C\[C@H](C)[C@H](O)[C@@H](C)[C@@H](O)[C@@H](C)[C@H](OC(C)=O)[C@@H]1C` [RFP, rifampicin, reference compound] showed an MIC in combination [10, 13] of 0.05 µg/mL.

With `CCN(CC)C(=S)S` [diethyldithiocarbamine, reference compound] the “Relative activity (%)” value (CYP2E1) was 55.0% and the “Relative activity (%)” value (CYP2A6; 100 μM, CYP2A6, coumarin (2 μM)) was 38.2%.

`Cc1nc2c([nH]1)c(=O)n(C)c(=O)n2Cc1ccco1` [furafylline, reference compound] was tested, and the activity at 100 μM (CYP1A1/2; human, microsomes, pH 7.4) was 32.3%.

With `O=c1c(O)c(-c2ccc(O)c(O)c2)oc2cc(O)cc(O)c12` [quercetin, reference compound] the activity at 100 μM (CYP2C8/9; [14]) was 30.6%.

For `Nc1ccc(S(=O)(=O)Nc2ccnn2-c2ccccc2)cc1` [sulfaphenazole, reference compound], the activity at 100 μM (CYP2C8/9; [14]) was 25.5%.
